Results: patent US20210077625A1, “RAY TRACING TECHNIQUE FOR WIRELESS CHANNEL MEASUREMENTS” (Cohere Technologies, Inc., priority 2017, published 2021)

Assays:
[1] = at 25° C.; cited from earlier work
[2] = system: LM36R human melanoma xenograft; assay: Tumor growth of vemurafenib-resistant LM36R melanoma xenograft in nude mice; format: in vivo, mouse; details: nude male mice, 5 mg of drug/kg per injection, bi-weekly tail vein, 4 weeks, n=5 per group; p-value 0.048 at week 4
Protocol: Vemurafenib-resistant LM36R human melanoma cells were inoculated (5.0×10^5 cells/mouse) into the right flank of athymic Nu/Nu nude male mice (Cr1:NU-Foxn1^nu strain code 088)) n=5 per group, and progression of tumor was recorded using the volume model of length×(width^2)×0.52. Mice were split into four groups consisting of a control (empty HANP), free Tris DBA-Pd, HANP with Tris DBA-Pd, and HANP with Tris DBA-Pd and αIGF1R antibody. Free Tris DBA-Pd was first dissolved in DMSO and then mixed with Kolliphor EL™. At last, the mixture was diluted by H2O before injection at concentration of 1 mg/mL of DBA. The ratio of DMSO, Kolliphor EL™ and H2O was controlled as 1:2:7 (v/v). The treatments were administered through bi-weekly tail vein injections over the course of 4 weeks (5 mg of drug/kg per injection). Tumor samples were analyzed for CD44 (hyaluronate receptor) expression by immunohistochemistry.

LM36R xenograft tumor = assay: Gene array / microarray RNA analysis of LM36R xenograft tumors; format: in vivo
Protocol: Gene array was performed on all tumors. […] By varying the delivery process of a single drug, one might be able to prevent resistance.
RNA Extraction and QC: RNA was extracted using the Qiagen miRNEasy™ kit with on column DNAse treatment. Tissue was lysed and homogenized in Qiazol™ with a rotor-stator probe homogenizer for 40 seconds or until fully disrupted (1 ml Qiazol™ per 100 mg of tissue). RNA was eluted in 50 ul nuclease free water. One microliter was used to determine OD (optical density) values on a Nanodrop 1000. One microliter was used to assess sample profiles on the Agilent 2100 using the RNA 6000 Nano assay. Total RNA (250 ng) was amplified and labeled using the ThermoFisher Scientific Illuina™ TotalPrep™ RNA Amplification kit. Labeled cRNA was hybridized to Illumina HT12™ bead array. Image acquisition and data extraction were performed.

[3] = Dispersion, solubility and stability in water, FBS, cell culture media; format: physicochemical; details: for solubility (general statement): water / not specified
[4] = target: T1, N-myristoyltransferase 1 (NMT1) (Homo sapiens, UniProt P30419); details: reported in literature; cited from earlier work
T1 sequence (P30419 1-496): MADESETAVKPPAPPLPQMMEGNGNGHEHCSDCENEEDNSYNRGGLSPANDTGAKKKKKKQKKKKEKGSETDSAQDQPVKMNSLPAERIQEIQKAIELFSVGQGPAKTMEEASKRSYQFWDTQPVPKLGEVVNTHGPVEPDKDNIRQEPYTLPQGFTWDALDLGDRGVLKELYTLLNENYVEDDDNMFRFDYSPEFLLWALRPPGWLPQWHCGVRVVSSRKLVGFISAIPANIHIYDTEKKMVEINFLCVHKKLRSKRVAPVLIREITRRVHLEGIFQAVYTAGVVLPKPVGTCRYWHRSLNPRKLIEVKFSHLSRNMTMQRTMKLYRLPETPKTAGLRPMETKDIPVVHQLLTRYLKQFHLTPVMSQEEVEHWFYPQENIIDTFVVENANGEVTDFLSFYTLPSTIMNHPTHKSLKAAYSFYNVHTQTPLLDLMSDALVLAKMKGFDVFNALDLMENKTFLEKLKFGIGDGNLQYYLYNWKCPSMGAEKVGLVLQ

melanoma = details: reported in literature; cited from earlier work

Compound	percent solubility in water by weight [1]	inhibition of LM36R tumor growth (tumor volume) [2]	SCG2 (secretogranin 2) gene expression (LM36R xenograft tumor)	solubility (general statement) [3]	solubility (general statement) ([3]; listed as Tris (dibenzylideneacetone) dipalladium)	behaviour in water, FBS, and cell culture media ([3]; water, FBS, cell culture media)	activity against the enzyme N-myristoyltransferase 1 [4]	efficacy against melanoma in vitro and preclinical models of pancreatic cancer, chronic lymphocytic leukemia, multiple myeloma (melanoma)
CCCCCCCC [octane]	0.63×10^−4 % w/w							
Tris (dibenzylideneacetone) dipalladium [Tris DBA-Pd]		showed efficacy	downregulated	Water-insoluble	poor solubility	immediately precipitated	activity	efficacious
